For one data set, the system named is E. coli. The data set can be described thus: Viable colony count assay (bactericidal effect, 4 h). The data set is classed as cell-based, Escherichia coli (ATCC #25922). As to the method: (§1) The bactericidal effects of the peptides were examined using a viable colony count assay as well as the live/dead staining assay. For the viable colony count assay, bacteria were treated with peptides for 4 h and the resulting viable bacterial density of each sample was expressed by log10[CFU/mL]. For the Gram-positive bacteria tested, the decrease in bacterial density was dependent on the concentration of the ACA-PA (FIG. 8A). […] As for Gram-negative E. coli and MDR E. coli bacteria (FIG. 8B), the ACA nanorods, wherein the PA were added at a concentration above their CMC, had potent bactericidal effects. For example, the ACA nanorods at concentrations over 60 μM reduced the colony forming units of Gram-negative bacteria by about a five log unit reduction after 4 h compared with the untreated negative control sample.
(§2) The viable count assay was performed to quantify the bactericidal activity of each peptide. Stock solutions of peptides were diluted in 3% TSB media to concentrations ranging from 20 μM to 100 μM immediately before experiments. Heparin-ACA-PA were also prepared by mixing the ACA-PA stock solution with heparin (sodium salt from porcine intestinal mucosa, Sigma, St. Louis, MO) to 1:1, 1:2 and 1:3 weight ratios in water, and a final concentration of ACA-PA in the heparin-ACA-PA at each heparin weight ratio was adjusted to 80 μM for each experiment. The bacteria (10^6 CFU/mL) were incubated with peptides at 37° C. for 4 h. After incubation, serial dilutions of samples were plated on TSB agar and then incubated at 37° C. overnight. The colonies from each spot were manually counted, and the CFU number for each sample was determined. Experiments were conducted in triplicate and results were expressed as the log 10 values of the CFU number in each sample. Data were expressed by stand error of the mean (±S.E.M.) and N=3, *p<0.05 compared with control samples and #p<0.05 compared with bacteria treated with 40 μM of ACA-PA.

The nature of data set [1]: Critical micelle concentration (CMC) by Nile Red fluorescence. The note with it: in water, Nile Red dye. The format is physicochemical. An excerpt:
First, the solvatochromic probe Nile Red was used to examine the threshold concentrations for the spontaneous aggregation induced by hydrophobic collapse of peptides. Once the supramolecular structures of PA self-assemble in water at their CMC, the Nile Red dye can be solubilized in the hydrophobic cores of the PA assemblies, displaying an enhanced fluorescent intensity. Consequently, the fluorescent intensity maxima of Nile Red were at the emission wavelength of 630 nm in the solutions of CVK-PA and ACA-PA, whereas the emission wavelength was located at 660 nm in the Bi-Cardin peptide solutions (FIG. 4A-4D). […] To estimate the CMC of each peptide, the corrected fluorescent intensity (If,corrected) of Nile Red at its emission wavelength for each peptide solution was calculated using equation: If,corrected=If,sample−If,water, where If,sample is the average of the triplicate fluorescent intensity measurements in the sample and If,water is the fluorescent intensity of Nile Red in water without the peptide. The measurements of the corrected fluorescent intensity were plotted against the log 10 values of concentration of each peptide, then the CMC value was determined at the point of intersection of the plot of log peptide concentration and fluorescent intensity of Nile Red.

The next data set relates to MDR E. coli. The data set can be described thus: Viable colony count assay (bactericidal effect, 4 h). The data set is classed as cell-based, multidrug-resistant E. coli (MDR E. coli, ATCC #BAA-2471). How it is done: as §1
In addition, ACA-PA were mixed with heparin at various weight ratios (1:1, 1:2, and 1:3 ACA-PA to heparin ratios) to block the Cardin motif groups on the PA. The ACA-PA concentration used to treat bacteria (MRSA and MDR E. coli) was a constant 80 μM and only varied in the concentration of heparin.
as §2

The nature of data set [2]: Cytotoxicity, MTS cell viability assay. The data set is classed as cell-based, human. The note with it: human, human dermal fibroblasts (HDF, Detroit 551, ATCC CCL-110). As to the method: (§3) To evaluate the cytotoxicity of the peptides, human dermal fibroblasts (HDF) were treated for 24 h, and cell viability was determined via MTS assays (FIG. 13).
(§4) Human dermal fibroblast cells (HDF, Detroit 551, ATCC #CCL-110) were cultured in Dulbecco's modified Eagle medium (DMEM; Fisher, Pittsburgh, PA) supplemented with 10% fetal bovine serum (FBS) and 1% penicillin/streptomycin for 24 h. All cells were cultured to 90% confluence in a 37° C., humidified, 5% CO2/95% air environment. Cells at passage numbers of 4-7 were used in these experiments.
(§5) The MTS cell viability assay kit (Promega, Madison, WI, USA) was used to determine cytotoxicity of the peptides. First, HDF cells were seeded on a 96-well plate at a cell density of 5,000 cells/well (equal to 15,385 cells/cm^2), and were incubated overnight for cell adhesion. After overnight incubation, the cell medium in each well was replaced by 100 μL of cell culture medium containing various concentrations of peptides (20 μM to 100 μM). The control samples were cells incubated in cell culture medium only. After 24 h, the treatment medium in each well was removed. The cells were washed with phosphate buffered saline (PBS, pH=7.4, Fisher, PA, USA) and 100 μL of fresh cell culture medium was added to each well, followed by the addition of 20 μL of the MTS reagent. After the cells were incubated for 2.5 h, the absorbance was measured at a wavelength of 490 nm by a spectrophotometer (SpectraMax M3, Molecular Devices, Molecular Devices, Sunnyvale, CA, USA). To estimate the cell numbers in each well, a standard curve expressing the linear correlation between different cell densities and optical densities (R^2>0.95) was plotted, and the cell numbers were determined with this standard curve from the OD490 value recorded in each sample. The cell viability of each sample was calculated by: Cell viability=[(cell density per mL of treated sample)/(cell density per mL of control sample)]×100%. Data were expressed by standard error of the mean (±S.E.M.) and N=3, *p<0.05 compared with control samples.
(In general: Tetrazolium dyes change colour on reduction, which living cells bring about.)

For data set [3], the system named is human dermal fibroblasts (HDF). Description: Cytotoxicity, MTS cell viability assay. The data set is classed as cell-based. How it is done: as §3, §4, §5

Residues, ends and D or L forms follow the SMILES beside them. *: point of attachment. Palmitoyl = CCCCCCCCCCCCCCCC(=O)*

What is called viability is the share of living cells, or the viability signal relative to a control. A low value points to more harm to the cells. Regarding `CCCCCCCCCCCCCCCC(=O)N[C@H](C(=O)N[C@H](C(=O)N[C@H](C(=O)N[C@H](C(=O)N[C@@H](CCCCN)C(=O)N[C@@H](CCCCN)C(=O)N[C@@H](CCCCN)C(=O)N[C@@H](CCCCN)C(=O)NCC(=O)N[C@@H](C)C(=O)N[C@@H](CCCCN)C(=O)N[C@@H](CCCCN)C(=O)N[C@@H](C)C(=O)N[C@@H](CCCNC(=N)N)C(=O)N[C@@H](C)C(=O)N[C@@H](C)C(=O)N[C@@H](CCCCN)C(=O)N[C@@H](CCCCN)C(=O)N[C@@H](C)C(=O)N[C@@H](CCCNC(=N)N)C(=O)N[C@@H](C)C(=O)O)C(C)C)C(C)C)C(C)C)C(C)C` [ACA-PA, C16-V4K4G(AKKARA)2 (SEQ ID NO: 7)] (Palmitoyl-VVVVKKKKGAKKARAAKKARA-OH; N-terminus and C-terminus assumed), the “decrease in bacteria density” value in the data set with E. coli (E. coli (Gram-negative), 60 to 100 μM) is 10,000 fold; in the data set with MDR E. coli (MDR E. coli (Gram-negative), 60 to 100 μM), 10,000 fold. For the same compound, the “reduction in bacteria density” value with E. coli (E. coli, concentrations lower than CMC, 4 h) is recorded as “no significant reduction in Gram-negative bacteria density”; with MDR E. coli (MDR E. coli, concentrations lower than CMC, 4 h) it was “no significant reduction in Gram-negative bacteria density”. Further, the “reduction of colony forming units” value was “five” with E. coli (E. coli, over 60 μM, 4 h, vs untreated control) and “five” in the data set on MDR E. coli (MDR E. coli, over 60 μM, 4 h, vs untreated control). The compound also came in with a CMC in data set [1] of 45.7 µM. The “number of viable bacteria colonies after mixing with heparin” value in the data set on MDR E. coli (MDR E. coli, 80 μM ACA-PA, 1:1, 1:2, 1:3 ACA-PA to heparin weight ratios) was “positively proportional to the amount of heparin added”. Moreover, in the data set on MDR E. coli (MDR E. coli, 80 μM ACA-PA, 1:3 ACA-PA to heparin weight ratio, 4 h), the “toxicity towards bacteria after mixing with heparin” value is reported as “no toxicity towards bacteria”. This compound also showed a viability at 24 h, 100 µM in data set [2] above 50%. Besides, in data set [3], the cytotoxicity entry is “moderate cytotoxicity”.

The values above are taken from patent US12319752B2, “Heparin-binding cationic peptide self-assembling peptide amphiphiles useful against drug-resistant bacteria” (priority 2016, dated 2025).
